The values below come from ChEMBL document CHEMBL1821596, “Isolation and structural identification of a direct-acting mutagen derived from N-nitroso-N-methylpentylamine and Fenton's reagent with copper ion” (Bioorg Med Chem, 2011).

Assay type in all cases: toxicity, organism-based
Common to all, as to settings: salmonella enterica subsp. enterica serovar typhimurium

For series [1], the system named is Salmonella typhimurium. Nature of the series: Mutagenic activity in Salmonella Typhimurium TA1535 at 100 uM after 2 hrs by plate-incorporating method in presence of Fe2+-Cu2+-H2O2 and nitric oxide.
For series [2], the system named is Salmonella typhimurium. Nature of the series: Mutagenic activity in Salmonella Typhimurium TA1535 at 100 uM after 2 hrs by plate-incorporating method in presence of Fe2+-H2O2.
For series [3], the system named is Salmonella typhimurium. Put plainly: Mutagenic activity in Salmonella Typhimurium TA1535 at 100 uM after 2 hrs by plate-incorporating method in presence of H2O2.
The test system of series [4] is Salmonella typhimurium. Put plainly: Mutagenic activity in Salmonella Typhimurium TA1535 at 100 uM after 2 hrs by plate-incorporating method in presence of Cu2+-Fe2+.
The subject of series [5] is Salmonella typhimurium. Nature of the series: Mutagenic activity in Salmonella Typhimurium TA1535 at 100 uM after 2 hrs by plate-incorporating method in presence of Fe2+-Cu2+-H2O2.
For series [6], the system named is Salmonella typhimurium. Nature of the series: Mutagenic activity in Salmonella Typhimurium TA1535 at 100 uM after 2 hrs by plate-incorporating method in presence of Cu2+-H2O2.
Series [7] concerns Salmonella typhimurium. Put plainly: Mutagenic activity in Salmonella Typhimurium TA1535 at 100 uM after 2 hrs by plate-incorporating method.

`CCCCCN(C)N=O`: the Activity entry in the series with Salmonella typhimurium [1] is “Toxic”; with Salmonella typhimurium [2] it was “Non-toxic”; with Salmonella typhimurium [3] it was “Non-toxic”; with Salmonella typhimurium [4], “Non-toxic”; in the series with Salmonella typhimurium [5] it was “Toxic”; in the series with Salmonella typhimurium [6] it was “Toxic”.

In the case of `CCC1([N+](=O)[O-])CCN=[N+]1[O-]` (configuration not stated), in the series on Salmonella typhimurium [7], the Activity entry is listed as “Toxic”.
